Test results: patent US20250346606A1, “CAMPTOTHECIN COMPOUND, PREPARATION METHOD THEREFOR, AND APPLICATION THEREOF” (SICHUAN KELUN-BIOTECH BIOPHARMACEUTICAL CO., LTD., priority 2021, published 2025)
Where two headings read alike, the source gives them in different places.

What was measured:
Format in all cases: cell-based, Human
NCI-N87 cells = assay: Inhibitory effect of compounds on NCI-N87 cell proliferation
Summary of the method: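 Adherent NCI-N87 cells were exposed to compound dilutions for 72 h. Viability measured by Cell Counting-Lite 2.0 luminescence, with inhibition calculated against vehicle and cell-free background RLU. IC50 from four-parameter fit.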

SKOV-3 cells = assay: Inhibitory effect of compounds on SKOV-3 cell proliferation; details: read-out: IC50, inhibitory activity on SKOV-3 cell proliferation
HCC1806 cells = assay: Inhibitory effect of compounds on HCC1806 cell proliferation
Summary of the method: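 HCC1806 cells, once adhered, were exposed to diluted compound for 72 h. Viability was read by Cell Counting-Lite 2.0 luminescence, inhibition calculated against vehicle and cell-free background RLU, and IC50 fitted with a four-parameter model.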

Jeko-1 cells = assay: Inhibitory effect of compounds on Jeko-1 cell proliferation; details: read-out: IC50, inhibitory activity on Jeko-1 cell proliferation
Summary of the method: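 After 72 h incubation with compound, Jeko-1 cell viability was measured by Cell Counting-Lite 2.0 luminescence (10 min reaction). Inhibition was calculated relative to vehicle and cell-free background RLU, and IC50 was obtained by four-parameter curve fitting.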

[1] = Homo sapiens, NCI-N87, 72 h, read-out: IC50, inhibitory activity on NCI-N87 cell proliferation, NCI-N87 human gastric cancer cells, 72 h incubation, Cell Counting-Lite 2.0
[2] = Homo sapiens, HCC1806, 72 h, read-out: IC50, inhibitory activity on HCC1806 cell proliferation, HCC1806 human breast squamous carcinoma cells, 72 h incubation, Cell Counting-Lite 2.0

Compound	IC50 (NCI-N87 cells; [1]) [nM]	IC50 (SKOV-3 cells; Homo sapiens, SK-OV-3, 72 h) [nM]	IC50 (HCC1806 cells; [2]) [nM]	IC50 (Jeko-1 cells; Homo sapiens, JeKo-1, 72 h) [nM]	IC50 (NCI-N87 cells; NCI-N87 human gastric cancer cells, 72 h incubation, Cell Counting-Lite 2.0, read-out: IC50, inhibitory activity on NCI-N87 cell proliferation) [nM]	IC50 (SKOV-3 cells; SKOV-3 human ovarian cancer cells, 72 h incubation, Cell Counting-Lite 2.0) [nM]	IC50 (HCC1806 cells; HCC1806 human breast squamous carcinoma cells, 72 h incubation, Cell Counting-Lite 2.0, read-out: IC50, inhibitory activity on HCC1806 cell proliferation) [nM]	IC50 (Jeko-1 cells; Jeko-1 human mantle cell lymphoma cells, 72 h incubation, Cell Counting-Lite 2.0) [nM]
CC[C@@]1(O)C(=O)OCc2c1cc1n(c2=O)Cc2c-1nc1cc(Cl)c(C)c3c1c2[C@H](NC(=O)[C@@H](O)C1CC1)CC3 [Example 5 (2-12-B), (2S)—N-((1R,9S)-5-chloro-9-ethyl-9-hydroxy-4-methyl-10,13-dioxo-2,3,9,10,13,15-hexahydro-1H,12H-benzo[de]pyrano[3′,4′:6,7]indolizino[1,2-b]quinolin-1-yl)-2-cyclopropyl-2-hydroxyacetamide]	4.97	4.99	1.07	–	–	–	–	–
CC#C[C@@H](O)C(=O)N[C@H]1CCc2c(C)c(F)cc3nc4c(c1c23)Cn1c-4cc2c(c1=O)COC(=O)[C@]2(O)CC [Example 1 (1-1-A), (R)—N-((1S,9S)-9-ethyl-5-fluoro-9-hydroxy-4-methyl-10,13-dioxo-2,3,9,10,13,15-hexahydro-1H,12H-benzo[de]pyrano[3′,4′:6,7]indolizino[1,2-b]quinolin-1-yl)-2-hydroxypent-3-yneamide]	4.58	7.81	–	1.33	–	–	–	–
(2S)—N-((1S,9S)-5-chloro-9-ethyl-9-hydroxy-4-methyl-10,13-dioxo-2,3,9,10,13,15-hexahydro-1H,12H-benzo[de]pyrano[3′,4′:6,7]indolizino[1,2-b]quinolin-1-yl)-2-hydroxypropylamine [Example 4 (2-7-A)]	–	–	–	–	3.76	8.64	1.25	0.28
CC[C@@]1(O)C(=O)OCc2c1cc1n(c2=O)Cc2c-1nc1cc(Cl)c(C)c3c1c2[C@@H](NC(=O)[C@@H](O)C1CC1)CC3 [Example 5 (2-12-A), (2S)—N-((1S,9S)-5-chloro-9-ethyl-9-hydroxy-4-methyl-10,13-dioxo-2,3,9,10,13,15-hexahydro-1H,12H-benzo[de]pyrano[3′,4′:6,7]indolizino[1,2-b]quinolin-1-yl)-2-cyclopropyl-2-hydroxyacetamide]	4.91	6.85	1.4	–	–	–	–	–
